Results: patent publication US20160303069A1, “MEDICAL USE OF COMPOUND FROM GARCINIA ESCULENTA” (Hong Kong Baptist University, priority 2015, published 2016)

Legend:
Eca109 cells [1] = assay: scratch (wound healing) migration assay; assay type: cell-based, human
Method: (§1) Eca109 and KYSE150 are cultured in RPMI1640 medium supplemented with 10% fetal calf serum, 100 U/ml penicillin and 100 μg/ml streptomycin in a humidified atmosphere containing 5% CO2 at 37° C. 0.25% trypsin is used for digestion and passage; cells under logarithmic growth phase are used in the experiment.
(§2) Eca109 and KYSE150 under logarithmic growth phase are seeded into 24-well plate (1×10^5 cells/well). When monolayer of cell is formed, use a sterile 100 μl pipette tip to create a scratch on the monolayer, and fresh medium containing different concentration of Griffipavixanthone (GPX) or Sorafenib (SFB) (20 μM/well) are added. Cells are observed at 12 hours and 36 hours after scratch and imaged under IX83 microscope (Olympus, Tokyo, Japan).

KYSE150 cells [2] = assay: scratch (wound healing) migration assay; assay type: cell-based, human
Method: as §1, §2

KYSE150 cells [3] = assay: matrigel transwell cell invasion assay; assay type: cell-based, human; details: 5, 10, 15, 20 μM, 24 hours
KYSE150 lung metastasis = assay: lung metastasis animal model (KYSE150 cells injected intravenously); assay type: in vivo; details: nude mice, 20 mg/kg every another day for 35 days; for number of lung tumor nodules / size / area of lung nodules (metastatic foci): HE staining, 20 mg/kg
Method: as §1, with “incubator” for “atmosphere”
KYSE150 cells (1×10^6 cells/mouse) are intravenously injected into 6-week old male nude mice (Experimental Animal Center of the Chinese Academy of Science, Shanghai, China). The 6-week old male nude mice weight 20 g each. After injection of the cancer cells, the mice are divided into 3 groups randomly (n=8 in each group). DMSO, GPX (20 mg/kg) or 5-FU (20 mg/kg) are administered to the mice intraperitoneally every another day for 35 days. Body weight is measured every 2 days. 35 days later, lungs are removed and weighted. Using Bouin's solution, lungs are fixed, sliced and stained with HE to count number of lung nodules.

Eca109 cells [4] = assay: matrigel transwell cell invasion assay; assay type: cell-based, human; details: 5, 10, 15, 20 μM, 24 hours
Method: as §1
Transwell chambers (8 μm pore size) used in cell migration assay are pre-incubated with matrigel for 2 hours, Eca109 (1×10^5 cells/well) are seeded onto serum-free upper chambers, lower chamber contains 10% FBS medium. Cells are treatment with GPX for 24 hours, thereafter, medium is discarded, cotton swab is used to gently remove the non invaded cells in the upper chamber. Invaded cells in the lower chamber are fixed with 4% paraformaldehyde, stained with 0.1% crystal violet and scored under a light microscope. Experimental data are expressed as mean±standard deviation, using SPSS18.0 statistical software for analysis, One-Way ANOVA for variance, comparison using Student t test, *P<0.05, **P<0.01, ***P<0.001 is considered as statistically significant difference.

Eca109 cells [5] = assay: transwell cell migration assay; assay type: cell-based, human; details: 5, 10, 15, 20 μM, 24 hours
Method: as §1
(§3) Eca109 and KYSE150 (5×10^4 cells/well) are seeded to the upper chamber (8 μm pore size) of the transwell chambers. The upper chamber contains serum-free; the lower chamber contains 10% FBS. Cells are treated with GPX for 24 hours, medium is then removed, non-migrated cells found on the upper chamber are removed using a cotton swab. Migrated cells found on the bottom chamber are fixed with 4% paraformaldehyde, stained with 0.1% crystal violet and scored under a light microscope in five random fields as shown in FIG. 3. Experimental data are expressed as mean±standard deviation, using SPSS18.0 statistical software for analysis, One-Way ANOVA for variance, comparison using Student t test, **P<0.01, ***P<0.001 is considered as statistically significant difference.

KYSE150 cells [6] = assay: transwell cell migration assay; assay type: cell-based, human; details: 5, 10, 15, 20 μM, 24 hours
Method: as §1, §3

KYSE150 cells [7] = assay: cell cycle analysis by PI flow cytometry; assay type: cell-based, human; details: 48 hours
Method: as §1, with “passage,” for “passage;”
[…] Cells are then harvested and fixed in 70% cold ethanol and stored 4° C. overnight. The cells are incubated with PI containing RNase A for 30 mins at 37° C., and are analyzed by flow cytometry (BD Biosciences Inc., Franklin Lakes, N.J., USA).

Eca109 cells [8] = assay: cell cycle analysis by PI flow cytometry; assay type: cell-based, human; details: 48 hours
Method: as §1, with “passage,” for “passage;”
Eca109 and KYSE150 (2×10^5 cells/well) are seeded to a 6-well place and treated with GPX or SFB (20 μM/well) for 48 hours. Cells are then harvested and fixed in 70% cold ethanol and stored 4° C. overnight. The cells are incubated with PI containing RNase A for 30 mins at 37° C., and are analyzed by flow cytometry (BD Biosciences Inc., Franklin Lakes, N.J., USA).

esophageal cancer = assay: apoptosis in vitro; assay type: cell-based
Eca109 cells [9] = assay: colony formation / cell proliferation assay; assay type: cell-based, human; details: 5, 10, 15, 20 μM, 48 hours treatment, 7 days incubation
Method: as §1
(§4) Eca109 (500 cells/well) and KYSE150 (250 cells/well) are seeded in a 6-well plate. […] On the 7th day, cells are fixed with 4% paraformaldehyde, stained with 0.1% crystal violet and imaged under a light microscope.

KYSE150 cells [10] = assay: colony formation / cell proliferation assay; assay type: cell-based, human; details: 5, 10, 15, 20 μM, 48 hours treatment, 7 days incubation
Method: as §1, §4

[11] = different concentrations of GPX, observed 12 h and 36 h after scratch
[12] = SFB 20 μM/well, positive control

`CC1=C[C@H]2c3c(c(O)c(O)c4oc5cc(O)cc(O)c5c(=O)c34)[C@H](c3cc(O)c(O)c4oc5cc(O)cc(O)c5c(=O)c34)[C@H]2C(C)(C)C1` [GPX, Griffipavixanthone] was tested, and the “inhibition of cell scratch migration in wound healing” value (“inhibition of cell scratch migration” for short) (Eca109 cells [1]; [11]) was “inhibits cell migration of Eca109 and KYSE150 in wound healing in a dose dependent manner”, the “inhibition of cell scratch migration” value (KYSE150 cells [2]; [11]) was “inhibits cell migration of Eca109 and KYSE150 in wound healing in a dose dependent manner” and the “inhibition of cell invasion” value (KYSE150 cells [3]) was “inhibits cell invasion of Eca109 and KYSE150 at 5, 10, 15, 20 μM in a dose dependent manner”. For the same compound, the “inhibition of lung metastasis of KYSE150” value (KYSE150 lung metastasis) was “significantly inhibits lung metastasis of KYSE150”, the lung weight (KYSE150 lung metastasis) was “reduced lung weight” and the “number of lung tumor nodules” value (KYSE150 lung metastasis) was “reduced number of lung tumor nodules”. For the same compound, the “size / area of lung nodules (metastatic foci)” value (KYSE150 lung metastasis) was “metastatic foci are sparse and smaller”, the “number of lung tumor nodules” value (KYSE150 lung metastasis; listed as Griffipavixanthone) was “reduces lung nodules” and the “size / area of lung nodules (metastatic foci)” value (KYSE150 lung metastasis; listed as Griffipavixanthone) was “reduces lung nodules and area of pulmonary nodules in lung tissues”. The “inhibition of cell invasion” value (Eca109 cells [4]) was “inhibits cell invasion of Eca109 and KYSE150 at 5, 10, 15, 20 μM in a dose dependent manner”, the “inhibition of cell migration (transwell)” value (Eca109 cells [5]) was “inhibits cell migration of Eca109 and KYSE150 at 5, 10, 15, 20 μM in a dose dependent manner” and the “inhibition of cell migration (transwell)” value (KYSE150 cells [6]) was “inhibits cell migration of Eca109 and KYSE150 at 5, 10, 15, 20 μM in a dose dependent manner”. The “G2/M cell cycle arrest” value (KYSE150 cells [7]; 5, 10, 15, 20 μM) was “induces G2/M cell cycle arrest in Eca109 and KYSE150 at 5, 10, 15, 20 μM in a dose dependent manner”, the “G2/M cell cycle arrest” value (Eca109 cells [8]; 5, 10, 15, 20 μM) was “induces G2/M cell cycle arrest in Eca109 and KYSE150 at 5, 10, 15, 20 μM in a dose dependent manner” and the promotion of apoptosis (esophageal cancer) was “without promoting apoptosis in vitro”. For the same compound, the “inhibition of cell proliferation (colony formation)” value (Eca109 cells [9]) was “inhibits cell proliferation of Eca109 and KYSE150 at 5, 10, 15, 20 μM in a dose dependent manner” and the “inhibition of cell proliferation (colony formation)” value (KYSE150 cells [10]) was “inhibits cell proliferation of Eca109 and KYSE150 at 5, 10, 15, 20 μM in a dose dependent manner”.

With `CNC(=O)c1cc(Oc2ccc(NC(=O)Nc3ccc(Cl)c(C(F)(F)F)c3)cc2)ccn1` [SFB, Sorafenib, reference compound] the “inhibition of cell scratch migration” value (Eca109 cells [1]; [12]) was “significantly inhibit cell scratch migration”, the “inhibition of cell scratch migration” value (KYSE150 cells [2]; [12]) was “significantly inhibit cell scratch migration” and the “G2/M cell cycle arrest” value (KYSE150 cells [7]; [12]) was “the results are in line with SFB”. The “G2/M cell cycle arrest” value (Eca109 cells [8]; [12]) was “the results are in line with SFB”.
